How the values were obtained:
C3H/10T1/2 cells [1] = experiment: Adipocyte differentiation inhibitory ability (Oil Red O staining); type: cell-based, mouse; settings: C3H/10T1/2, 10 μg/ml
Protocol: C3H/10T1/2 cells, which are mouse mesenchymal progenitor cells purchased from ATCC, were diluted in DMEM (Dulbecco's Modified Eagle Medium) medium containing 5.958 g/L HEPES, 3.7 g/L sodium bicarbonate and 10% FBS (fetal bovine serum), and cultured in 24-well culture plates at a density of 4×10^4 cells/well, in the presence of 5% CO2 at 37° C. for 2 days. When the cultured cells were grown to 90˜100% confluency in the culture plates, the cells were cultured in DMEM medium containing 10% FBS, to which 5μ/ml insulin, 1 μM dexamethason, and 5 μM troglitazone were added, in the presence of 5% CO2 at 37° C. for 8 days, to induce differentiation into adipocyte. The medium was exchanged every other day during differentiation. The C3H/10T1/2 cell line, in which differentiation into the adipocyte was induced, was fixed with 3.7% formaldehyde at room temperature for 30 minutes. An oil Red O solution dissolved in isopropanol at a concentration of 0.5% was diluted in distilled water at a ratio of 6:4, filtered through a 0.2 μm filter, and poured to the fixed cell line, which was stained for 1 hour. In order to observe only the cells differentiated into the adiopocyte, the dye solution was removed and the cells were washed with distilled water two times.
116V specimen extracted from sponge was dissolved in DMSO solvent, and allowed to treat C3H/10T1/2 cell lines, which are mouse mesenchymal progenitor cells, at concentrations of 1, 2.5, 5, 10, and 20 μg/ml. […] Then, after specimens of the compound 1 (1163), the compound 2 (1162), the compound 3 (1161), and the compound 4 (1164), which were purely separated from the 116V and 116VI species were obtained, the same experiment was performed. […] Remarkable cytotoxicity was not observed in each of the specimens during differentiation of adipocytes (FIG. 8).

[2] = Solubility in organic solvents; type: physicochemical
C3H/10T1/2 cells [3] = experiment: Osteoblast formation activity (calcium deposition assay, Alizarin Red S); type: cell-based, mouse; settings: for osteoblast differentiation ability: C3H/10T1/2, calcium deposition; for concentration of maximum osteoblast differentiation activity: C3H/10T1/2, tested 1-20 ug/ml; for concentration at which cytotoxicity was observed: C3H/10T1/2 during osteoblast differentiation
Protocol: C3H/10T1/2 cells, which are mouse mesenchymal progenitor cells purchased from ATCC, were diluted in DMEM (Dulbecco's Modified Eagle Medium) medium containing 5.958 g/L HEPES, 3.7 g/L sodium bicarbonate, and 10% FBS (fetal bovine serum), and cultured in 24-well culture plates at a density of 4×10^4 cells/well, in the presence of 5% CO2 at 37° C. for 2 days. The cultured cells were grown to 90˜100% confluency in the culture plates, the cells were cultured in DMEM medium containing 10% FBS, to which 10 mM of β-glycerophosphate and 50μ/ml of ascorbic acid were added, in the presence of 5% CO2 at 37° C. for 6 days, to induce differentiation into osteoblast. The medium was exchanged every other day during differentiation. The C3H/10T1/2 cell line, in which differentiation into the osteoblast was induced, was washed with PBS (Phosphate Buffered Saline) once, and fixed with 70% ethanol at 20° C. for 1 hour. The cells after fixing were washed with cold PBS three times, and stained with 40 mM Alizarin Red S dye solution at room temperature for 20 minutes. The dye solution was removed and the cells were washed with distilled water three times in order to selectively observe only the cells differentiated into the osteoblast.
An aliquot 116V and an aliquot 116VI extracted and partitioned from sponges are dissolved in a DMSO solvent, and used to treat the C3H/10T1/2 cell line, mesenchymal progenitor cells, at concentrations of 1, 2.5, 5, 10, and 20 ug/ml. […] Since then, the same experiment was performed on the compound (1163), the compound 2 (1162), the compound 3 (1161), and the compound 4 (1164), which were purely separated from the aliquots 116V and 116VI, and as a result, it could be confirmed that the osteoblast differentiation ability was increased in the compounds 1, 3, and 4. […] To study a mechanism with respect to osteoblast differentiation ability, the C3H/10T1/2 cell lines were treated with the compound 1 and the compound 4 for 6 days, respectively. […] Also, the C3H/10T1/2 cell lines were treated with the compound 1 and the compound 4 for 6 days, respectively. […] Furthermore, it could be ascertained that combining of Runx2 and TAZ proteins was increased by treatment of the compounds and thus the activity of Runx2-meditated transcription was increased. The compound 5, which is an ester derivative of the compound 1 (1163), was synthesized in order to prepare a material having more excellent bioactivity, and the structure of the compound 5 obtained thus was determined. […] Therefore, the compounds of the present invention and derivatives thereof are expected to promote the differentiation of the osteoblast and thus play an innovative role in treatment of osteoporosis.

Runx2, Osteocalcin, Msx2 = experiment: Real time PCR of osteoblast differentiation mark factors; type: cell-based, mouse; settings: C3H/10T1/2 treated for 6 days, RTPCR
Protocol: (§1) An aliquot 116V and an aliquot 116VI extracted and partitioned from sponges are dissolved in a DMSO solvent, and used to treat the C3H/10T1/2 cell line, mesenchymal progenitor cells, at concentrations of 1, 2.5, 5, 10, and 20 ug/ml. […] Since then, the same experiment was performed on the compound (1163), the compound 2 (1162), the compound 3 (1161), and the compound 4 (1164), which were purely separated from the aliquots 116V and 116VI, and as a result, it could be confirmed that the osteoblast differentiation ability was increased in the compounds 1, 3, and 4. […] To study a mechanism with respect to osteoblast differentiation ability, the C3H/10T1/2 cell lines were treated with the compound 1 and the compound 4 for 6 days, respectively. […] Also, the C3H/10T1/2 cell lines were treated with the compound 1 and the compound 4 for 6 days, respectively. […] Furthermore, it could be ascertained that combining of Runx2 and TAZ proteins was increased by treatment of the compounds and thus the activity of Runx2-meditated transcription was increased. The compound 5, which is an ester derivative of the compound 1 (1163), was synthesized in order to prepare a material having more excellent bioactivity, and the structure of the compound 5 obtained thus was determined. […]

Runx2 and TAZ = experiment: Western blot of osteoblast differentiation mark factors; type: cell-based, mouse; settings: C3H/10T1/2 treated for 6 days
Protocol: as §1

CC(=O)OCC1=C[C@@]2(C=C(C)C[C@H](/C=C(\C)CCC=C(C)C)O2)O[C@H]2C=C(C)C(=O)C[C@@H]12 [Compound 2]
adipocyte differentiation ability (C3H/10T1/2 cells [1]): remarkably decreased | Solubility [2]: Easily Dissolved in Organic Solvent of Acetone, Methanol, DMSO, etc.

CC(=O)O[C@@H]1C[C@H]2C(CO)=C[C@@]3(C=C(C)C[C@H](/C=C(\C)CCC=C(C)C)O3)O[C@H]2C=C1C [Compound 3]
adipocyte differentiation ability (C3H/10T1/2 cells [1]): remarkably decreased | Solubility [2]: Easily Dissolved in Organic Solvent of Acetone, Methanol, DMSO, etc. | osteoblast differentiation ability (C3H/10T1/2 cells [3]): increased | concentration of maximum osteoblast differentiation activity (C3H/10T1/2 cells [3]): 2.5 µg/mL | concentration at which cytotoxicity was observed (C3H/10T1/2 cells [3]): > 2500 ng/mL

CC(=O)O[C@H]1C[C@H]2C(CO)=C[C@@]3(C=C(C)C[C@H](/C=C(\C)CCC=C(C)C)O3)O[C@H]2C=C1C [Compound 4]
adipocyte differentiation ability (C3H/10T1/2 cells [1]): remarkably decreased | Solubility [2]: Easily Dissolved in Organic Solvent of Acetone, Methanol, DMSO, etc. | osteoblast differentiation ability (C3H/10T1/2 cells [3]): increased | concentration of maximum osteoblast differentiation activity (C3H/10T1/2 cells [3]): 5 µg/mL | concentration at which cytotoxicity was observed (C3H/10T1/2 cells [3]): > 5000 ng/mL | transcription degree of differentiation mark factors (Runx2, Osteocalcin, Msx2, etc.) (Runx2, Osteocalcin, Msx2): remarkably increased | protein expression of Runx2 and TAZ (Runx2 and TAZ): increased

CCCC(=O)OCC1=C[C@@]2(C=C(C)C[C@H](/C=C(\C)CCC=C(C)C)O2)O[C@H]2C=C(C)C(=O)C[C@@H]12 [Compound 5]
osteoblast differentiation ability (C3H/10T1/2 cells [3]): promoted differentiation of the osteoblast in a similar degree as that of the compound 1

CC1=C[C@@]2(C=C(CO)[C@@H]3CC(=O)C(C)=C[C@@H]3O2)O[C@@H](/C=C(\C)C/C=C/C(C)(C)O)C1 [Compound 9]
Solubility [2]: Easily Dissolved in Organic Solvent of Acetone, Methanol, DMSO, etc.

C=C(C)C(O)CC/C(C)=C/[C@H]1CC(C)=C[C@@]2(C=C(CO)[C@@H]3CC(=O)C(C)=C[C@@H]3O2)O1 (some centres unmarked) [Compound 10]
Solubility [2]: Easily Dissolved in Organic Solvent of Acetone, Methanol, DMSO, etc.

From patent US8703813B2, “Compound with spiro chiral carbon backbone, preparation method thereof, and pharmaceutical composition containing the same” (SNU R & DB Foundation, priority 2008, dated 2014)
